The values that follow come from patent publication US20230135093A1, “TRIAZOLYL DERIVATIVES AS GABA A ALPHA5 PAM” (Hoffmann-La Roche Inc., priority 2020, published 2023).

pKi: −log10 of the molar value.

The target in assay [1] is T1, h-GABA-A α5β3γ2 (Homo sapiens, UniProt P18507+P31644).
T1 construct: expressed in transfected cells; host or cells: Xenopus laevis oocytes, micro-injected with subunit RNA
Kind of assay: [3H]flumazenil competition binding assay on membranes of HEK293 cells expressing GABAA receptors. The note with it: Table 1; displacement of [3H]-Flumazenil (0.5 nM), HEK293 cells expressing human receptors, means of two determinations. The method, then: The affinity of compounds at GABAA receptor subtypes was measured by competition for [3H]flumazenil (85 Ci/mmol; Roche) binding to HEK293 cells expressing rat (stably transfected) or human (transiently transfected) receptors of composition α1β3γ2, α2β3γ2, α3β3γ2 and α5β3γ2.
Cell pellets were suspended in Krebs-tris buffer (4.8 mM KCl, 1.2 mM CaCl2, 1.2 mM MgCl2, 120 mM NaCl, 15 mM Tris; pH 7.5; binding assay buffer), homogenized by polytron for ca. 20 sec on ice and centrifuged for 60 min at 4° C. (50000 g; Sorvall, rotor: SM24=20000 rpm). The cell pellets were resuspended in Krebs-tris buffer and homogenized by polytron for ca. 15 sec on ice. Protein was measured (Bradford method, Bio-Rad) and aliquots of 1 mL were prepared and stored at −80° C.
Radioligand binding assays were carried out in a volume of […] (96-well plates) which contained […] of cell membranes, [^3H]-Flumazenil at a concentration of 1 nM for α1, α2, α3 subunits and 0.5 nM for α5 subunits and the test compound in the range of […]. Nonspecific binding was defined by 10^−5 M diazepam and typically represented less than 5% of the total binding. Assays were incubated to equilibrium for 1 hour at 4° C. and harvested onto GF/C uni-filters (Packard) by filtration using a Packard harvester and washing with ice-cold wash buffer (50 mM Tris; pH 7.5). After drying, filter-retained radioactivity was detected by liquid scintillation counting. Ki values were calculated using Excel-Fit (Microsoft) and are the means of two determinations.
In a preferred embodiment the compounds of the invention are binding selective for the α5 subunit relative to the α1, α2 and α3 subunit. Representative test results, obtained by the above described assay measuring binding affinity to HEK293 cells expressing human (h) receptors, are shown in the Table below.

Assay [2] concerns the target T1, h-GABA-A α5β3γ2. In words: Two-electrode voltage clamp electrophysiology in Xenopus oocytes expressing GABAA receptors (modulation of GABA EC20 current). It counts as cell-based. The note with it: Table 1; for Efficacy (GABA) %: % modulation of GABA EC20 = 100*(Fold increase-1); for Fold increase h-GABA-A α5β3γ2 oocyte: Xenopus oocytes, GABA EC20, test compound at approximatively 30 fold its Ki. Here is the method: Xenopus laevis oocytes at maturation stages V-VI were used for the expression of cloned mRNA encoding GABAA receptor subunits. Oocytes ready for RNA micro-injection were bought from Ecocyte, Castrop-Rauxel, Germany and stored in modified Barth's medium (composition in mM: NaCl 88, KCl 1, NaHCO3 2.4, HEPES 10, MgSO4 0.82, CaNO3 0.33, CaCl2 0.33, pH=7.5) at 20° C. until the experiment.
Oocytes were plated in 96-well plates to be used in an automated instrument (Robo-ocyte, MultiChannelSystems, Reutlingen, Germany) for microinjection and electrophysiological recordings. Approximately 50 nl of an aqueous solution containing the RNA transcripts for the subunits of the desired GABAA receptor was injected into each oocyte. RNA concentrations ranged between 0.3 and 16 ng/μl/subunit and were adjusted in pilot experiments to obtain GABA responses of a suitable size and a maximal effect of the reference modulator, Beta-CCM (3-CCM), a betacarboline negative allosteric modulator (NAM) at the GABAA receptor benzodiazepine (BZD) binding site or Midazolam, a benzodiazepine positive allosteric modulator (PAM) at the GABAA receptor benzodiazepine (BZD) binding site. The concentration of the γ2 subunit encoding RNA usually was 5- to 10-fold higher than the RNAs encoding the other subunits. Oocytes were kept in modified Barth's medium (composition in mM: NaCl 88, KCl 1, NaHCO3 4, HEPES 10, MgSO4 0.82, CaNO3 0.33, CaCl2 0.33, pH=7.5) at 20° C. until the experiment.
Electrophysiological experiments were performed on days 3 to 5 after the micro-injection of mRNA. During the experiment the oocytes were constantly superfused by a solution containing (in mM) NaCl 90, KCl 1, HEPES 5, MgCl2 1, CaCl2 1 (pH 7.4). Oocytes were impaled by two glass microelectrodes (resistance: 0.4 MQ) which were filled with a solution containing KCl 1M+K-acetate 1.5 M and voltage-clamped to −80 mV. The recordings were performed at room temperature using the Roboocyte two-electrode voltage clamp system (Multichannelsystem). After an initial equilibration period of 1.5 min GABA was added for 1.5 min at a concentration evoking approximately 20% of a maximal current response (EC20). After another rest interval of 2.5 min GABA was again added evoking a response of similar amplitude and shape. 0.5 min after the onset of this second GABA application the test compound, at a concentration corresponding to approximatively 30 fold its Ki, was added while GABA was still present. Current traces were recorded at a digitization rate of 10 Hz during and shortly before and after the GABA application.
Each compound and concentration was tested on at least 3 oocytes. Different oocytes were used for different compound concentrations. β-CCM, a negative allosteric modulator, or Midazolam, a positive allosteric modulators, were tested on a few (3-6) oocytes on each 96-well plate for a positive control at a maximally effective. β-CCM inhibited the GABA-evoked current by approximatively 50% (Fold increase 0.5), while Midazolam potentiated the GABA-induced current by approximatively 150% (Fold increase 2.5).
For the analysis, the digitized current traces of the first and second GABA response were superimposed and, if necessary, rescaled to equal maximal amplitudes. The ratio between the two responses during the time interval of test compound application was calculated point by point. The extremum of the resulting “ratio trace” was taken as the efficacy (“Fold increase”) of the compound expressed as “% modulation of GABA EC20” (100*(Fold increase-1)).
In general terms: In two-electrode clamp one electrode senses voltage and the other passes current.

One may read the pKi as the negative decadic logarithm of the Ki, by convention in mol/L. Read a low pKi as a large Ki. For `CN(C)c1cnn(Cc2c(-c3ccc(Cl)cc3F)nnn2C)c(=O)c1` [Example 15, 2-[[5-(4-chloro-2-fluoro-phenyl)-3-methyl-triazol-4-yl]methyl]-5-(dimethylamino)pyridazin-3-one], the pKi in assay [1] is 8.42. Besides, in assay [2], the “Efficacy (GABA) %” value was 48% and the “Fold increase h-GABA-A α5β3γ2 oocyte” value was found to be 1.48.
The corresponding values for `Cn1nnc(-c2ccc(Cl)cc2F)c1Cn1ncc(N2CCOCC2)cc1=O` [Example 16, 2-[[5-(4-chloro-2-fluoro-phenyl)-3-methyl-triazol-4-yl]methyl]-5-morpholino-pyridazin-3-one] are 8.66, 81% and 1.81.
The corresponding values for `Cn1nnc(-c2ccc(Cl)cc2F)c1Cn1ncc(N2CCN(C3CC3)CC2)cc1=O` [Example 17, 2-[[5-(4-chloro-2-fluoro-phenyl)-3-methyl-triazol-4-yl]methyl]-5-(4-cyclopropyl-piperazin-1-yl)pyridazin-3-one] are 7.92, 75% and 1.75.
For `Cc1ccc(-c2nnn(C)c2Cn2ncc(N3CCC[C@H]3C)cc2=O)cn1` [Example 18, 2-[[3-methyl-5-(6-methyl-3-pyridyl)triazol-4-yl]methyl]-5-[(2R)-2-methylpyrrolidin-1-yl]pyridazin-3-one] the same measures were 9.10, 79% and 1.79.
`COC[C@@H]1CCCN1c1cnn(Cc2c(-c3ccc(C)nc3)nnn2C)c(=O)c1` [Example 19, 5-[(2S)-2-(methoxymethyl)pyrrolidin-1-yl]-2-[[3-methyl-5-(6-methyl-3-pyridyl)triazol-4-yl]methyl]pyridazin-3-one] gave a pKi in assay [1] of 7.97. Also, in assay [2], the “Efficacy (GABA) %” value was 137% and the “Fold increase h-GABA-A α5β3γ2 oocyte” value turned out to be 2.37.
For `Cc1nnn(-c2ccc(Cl)cc2)c1Cn1ncc(N2C[C@@H](C)O[C@@H](C)C2)cc1=O` [Example 20, 2-[[3-(4-chlorophenyl)-5-methyl-triazol-4-yl]methyl]-5-[(2R,6S)-2,6-dimethylmorpholin-4-yl]pyridazin-3-one] the same measures were 8.08, 108% and 2.08.
On to `Cn1nnc(-c2ccc(Cl)cc2F)c1Cn1ncc(N2CCN(C(=O)C3CC3)CC2)cc1=O` [Example 21, 2-[[5-(4-chloro-2-fluoro-phenyl)-3-methyl-triazol-4-yl]methyl]-5-[4-(cyclopropanc-carbonyl)piperazin-1-yl]pyridazin-3-one], for which the pKi in assay [1] is 8.06. For the same compound, in assay [2], the “Efficacy (GABA) %” value was 140% and the “Fold increase h-GABA-A α5β3γ2 oocyte” value is 2.4.
The corresponding values for `CNc1cnn(Cc2c(-c3ccc(Cl)cc3F)nnn2C)c(=O)c1` [Example 22, 2-[[5-(4-chloro-2-fluoro-phenyl)-3-methyl-triazol-4-yl]methyl]-5-(methylamino)pyridazin-3-one] are 7.68, 45% and 1.45.
The corresponding values for `CCOC1CN(c2cnn(Cc3c(C)nnn3-c3ccc(Cl)cc3F)c(=O)c2)C1` [Example 23, 2-((1-(4-chloro-2-fluorophenyl)-4-methyl-1H-1,2,3-triazol-5-yl)methyl)-5-(3-ethoxyazetidin-1-yl)pyridazin-3(2H)-one] are 7.15, 75% and 1.75.
For `Cc1nnn(-c2ccc(Cl)cc2F)c1Cn1ncc(N2Cc3ccccc3C2)cc1=O` [Example 24, 2-[[3-(4-chloro-2-fluoro-phenyl)-5-methyl-triazol-4-yl]methyl]-5-isoindolin-2-yl-pyridazin-3-one] the same measures were 7.28, 60% and 1.6.
As to `Cc1ccc(-n2nnc(C)c2Cn2ncc(N3CCC[C@H]3C)cc2=O)cn1` [Example 25, 2-[[5-methyl-3-(6-methyl-3-pyridyl)triazol-4-yl]methyl]-5-[(2R)-2-methylpyrrolidin-1-yl]pyridazin-3-one], the pKi in assay [1] was 8.36. Besides, in assay [2], the “Efficacy (GABA) %” value was determined as 97% and the “Fold increase h-GABA-A α5β3γ2 oocyte” value was 1.97.
For `COC1CN(c2cnn(Cc3c(-c4ccc(Cl)cc4F)nnn3C)c(=O)c2)C1` [Example 26, 2-[[5-(4-chloro-2-fluoro-phenyl)-3-methyl-triazol-4-yl]methyl]-5-(3-methoxyazetidin-1-yl)pyridazin-3-one] the same measures were 7.89, 55% and 1.55.
For `CCOC1CN(c2cnn(Cc3c(-c4ccc(Cl)cc4F)nnn3C)c(=O)c2)C1` [Example 27, 2-[[5-(4-chloro-2-fluoro-phenyl)-3-methyl-triazol-4-yl]methyl]-5-(3-ethoxyazetidin-1-yl)pyridazin-3-one] the same measures were 8.09, 69% and 1.69.
For `Cn1nnc(-c2ccc(Cl)cc2F)c1Cn1ncc(N2CC(OCC3CC3)C2)cc1=O` [Example 28, 2-[[5-(4-chloro-2-fluoro-phenyl)-3-methyl-triazol-4-yl]methyl]-5-[3-(cyclopropyl-methoxy)azetidin-1-yl]pyridazin-3-one] the same measures were 7.74, 115% and 2.15.
`Cn1nnc(-c2ccc(Cl)cc2F)c1Cn1ncc(N2CC3(CCCO3)C2)cc1=O` [Example 29, 2-[[5-(4-chloro-2-fluoro-phenyl)-3-methyl-triazol-4-yl]methyl]-5-(5-oxa-2-azaspiro[3.4]octan-2-yl)pyridazin-3-one] showed a negative-log Ki (pKi) in assay [1] of 7.82. In addition, in assay [2], the “Efficacy (GABA) %” value is recorded as 49% and the “Fold increase h-GABA-A α5β3γ2 oocyte” value turned out to be 1.49.
For `C[C@@H]1CN(c2cnn(Cc3c(-c4ccc(Cl)cc4)nnn3C)c(=O)c2)C[C@H](C)O1` [Example 30, 2-[[5-(4-chlorophenyl)-3-methyl-triazol-4-yl]methyl]-5-[(2R,6S)-2,6-dimethylmorpholin-4-yl]pyridazin-3-one] the same measures were 8.51, 110% and 2.1.
